# Source: patent CN109329202A, “一种有效抑制n-羟乙酰神经氨酸合成的方法” (Guizhou University, priority 2018, dated 2019)
# Test system: Neu5Gc synthesis [Neu5Gc的合成]
# Experiment: Neu5Gc degradation in rat muscle, liver and kidney after 30 d oral gavage (HPLC after DMB derivatisation)
# Assay type: in vivo
# Conditions: male SD rats, oral gavage 200 mg/(kg.d) in 0.5% sodium carboxymethylcellulose, vs blank control (HPLC peak area)
structure (smiles),measurement,setting,value
O=c1c(O)c(-c2ccc(O)cc2)oc2cc(O)cc(O)c12 [山奈酚],"Neu5Gc degradation rate, kidney sample",kidney,17.55%
same,"Neu5Gc degradation rate, liver sample",liver,6.315%
same,"Neu5Gc degradation rate, meat sample",thigh muscle,13.356%
